According to article PMC3234531 (2011):

Columns and labels:
[1] = molecular target: IKca channel (intermediate conductance potassium channel) (Homo sapiens, UniProt O15554); test: modified biotin switch; type: cell-based
[2] = molecular target: cystathionine γ-lyase (CSE); test: CSE activity assay after pre-incubation with the NO donor S-nitroso-glutathione; type: biochemical

IKca channel (intermediate conductance potassium channel), sequence (O15554 whole entry): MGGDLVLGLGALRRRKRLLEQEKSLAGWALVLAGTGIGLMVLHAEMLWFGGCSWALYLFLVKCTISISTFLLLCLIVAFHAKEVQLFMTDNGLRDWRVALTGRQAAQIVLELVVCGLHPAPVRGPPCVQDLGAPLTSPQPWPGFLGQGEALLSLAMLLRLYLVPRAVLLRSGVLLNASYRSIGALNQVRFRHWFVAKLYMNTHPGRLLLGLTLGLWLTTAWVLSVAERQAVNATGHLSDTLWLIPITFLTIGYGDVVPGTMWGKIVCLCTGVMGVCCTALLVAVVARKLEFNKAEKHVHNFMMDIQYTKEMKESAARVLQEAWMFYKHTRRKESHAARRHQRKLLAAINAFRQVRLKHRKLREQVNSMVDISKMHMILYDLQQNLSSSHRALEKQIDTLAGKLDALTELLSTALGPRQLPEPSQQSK

S [H2S]
modified biotin switch (S-sulfhydration) assay, DTT-sensitive [1]: IKca channels from human aortic endothelial cells are sulfhydrated by NaHS in a DTT-sensitive fashion

[N]=O [NO]
IC50 [2]: ~100 nM
